Source: ChEMBL document CHEMBL3137667, “[Drug-induced liver injury; fourteenth updated edition of the bibliographic database of liver injuries and related drugs]” (Gastroenterol Clin Biol, 2004)

Tests used:
[1] = human, serum
[2] = human
[3] = human; remark: listed apart in the source
[4] = human; remark: listed apart in the source
[5] = human; remark: listed apart in the source
[6] = Comments (NB not yet translated). [column 'COMMENTAIRES' in source]; conditions: human
[7] = human, serum; remark: listed apart in the source
[8] = Times to onset, minimal and maximal, observed in the indexed observations. [column 'DELAI' in source]; conditions: human
[9] = human; remark: listed apart in the source
[10] = Highest frequency of moderate liver toxicity observed during clinical trials, expressed as a percentage. [column '% BIOL' in source]; conditions: human
[11] = human, serum, 4383 h
[12] = human; remark: listed apart in the source
[13] = human; remark: listed apart in the source
[14] = human; remark: listed apart in the source
[15] = human; remark: listed apart in the source
[16] = Highest frequency of acute liver toxicity observed during clinical trials, expressed as a percentage. [column '% AIGUE' in source]; conditions: human
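For Hepatotoxicity (association with vascular disease) in this document: count of indexed literature references reporting vascular liver injury in humans, e.g. peliosis hepatitis, hepatic veno-occlusive disease or Budd-Chiari syndrome.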
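For Hepatotoxicity (benign tumour) in this document: value is a count of indexed literature references citing a benign tumour confirmed by histopathology.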
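For Hepatotoxicity (choleostasis) in this document: human cholestatic liver injury, shown by histopathology or by peak ALT or AST elevation over alkaline phosphatase ratio below 2, value counts indexed literature reports.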
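For Hepatotoxicity (chronic liver disease) in this document: chronic liver injury confirmed by histopathology or persistently raised serum aminotransferase activity beyond 6 months, value given as the count of indexed literature references.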
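For Hepatotoxicity (cirrhosis) in this document: value is a count of indexed literature references reporting cirrhosis confirmed by histopathology.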
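For Hepatotoxicity (cytolytic) in this document: human cytolytic liver injury, shown by histopathology or by a ratio above 5 of peak ALT or AST elevation to alkaline phosphatase elevation, value counts indexed references.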
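For Hepatotoxicity (granulomatous hepatitis) in this document: value is a count of indexed literature references reporting granulomatous liver disease confirmed by histopathology.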
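For Hepatotoxicity (malignant tumour) in this document: malignant tumour confirmed by histopathology, value gives the count of indexed literature references reporting it.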
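For Hepatotoxicity (severe hepatitis) in this document: human clinical data: severe hepatitis, meaning potentially life-threatening liver failure or clinically observed cases, the value counts how many indexed literature references report it.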
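For Hepatotoxicity (steatosis) in this document: steatosis confirmed by histopathology, value is the count of indexed references.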

## CC/C(=C(/CC)c1ccc(OP(=O)(O)O)cc1)c1ccc(OP(=O)(O)O)cc1 [DIETHYLSTILBESTROL DIPHOSPHATE]
[1]
  Hepatotoxicity (moderate): 1
[2]
  Hepatotoxicity (choleostasis): 0
[3]
  Hepatotoxicity (cytolytic): 0
[4]
  Hepatotoxicity (severe hepatitis): 0
[5]
  Hepatotoxicity (benign tumour): 0
[6]
  Hepatotoxicity (comment): NASH
[7]
  Hepatotoxicity (acute): 0
[8]
  Hepatotoxicity (time to onset): 3 months - 9 years
[9]
  Hepatotoxicity (cirrhosis): 1
[10]
  Hepatotoxicity (moderate): 6.3%
[11]
  Hepatotoxicity (chronic liver disease): 1
[12]
  Hepatotoxicity (malignant tumour): 0
[13]
  Hepatotoxicity (steatosis): 1
[14]
  Hepatotoxicity (granulomatous hepatitis): 0
[15]
  Hepatotoxicity (association with vascular disease): 0
[16]
  Hepatotoxicity (acute): 0%

## CC/C(=C(/CC)c1ccc(O)cc1)c1ccc(O)cc1 [DIETHYLSTILBESTROL]
[1]
  Hepatotoxicity (moderate): 3
[2]
  Hepatotoxicity (choleostasis): 4
[3]
  Hepatotoxicity (cytolytic): 0
[4]
  Hepatotoxicity (severe hepatitis): 1
[5]
  Hepatotoxicity (benign tumour): 0
[6]
  Hepatotoxicity (comment): ANGIOSARCOME RC/TAMOXIFENE
[7]
  Hepatotoxicity (acute): 5
[8]
  Hepatotoxicity (time to onset): 4 days - 15 years
[9]
  Hepatotoxicity (cirrhosis): 0
[10]
  Hepatotoxicity (moderate): 19%
[11]
  Hepatotoxicity (chronic liver disease): 0
[12]
  Hepatotoxicity (malignant tumour): 6
[13]
  Hepatotoxicity (steatosis): 0
[14]; Liver
  Hepatotoxicity (granulomatous hepatitis): 0
[15]
  Hepatotoxicity (association with vascular disease): 1
[16]
  Hepatotoxicity (acute): 0%

## CN(C)CC/C=C1\c2ccccc2CSc2ccccc21 [DOTHIEPIN]
[1]
  Hepatotoxicity (moderate): 1
[2]
  Hepatotoxicity (choleostasis): 2
[3]
  Hepatotoxicity (cytolytic): 2
[4]
  Hepatotoxicity (severe hepatitis): 0
[5]
  Hepatotoxicity (benign tumour): 0
[6]
  Hepatotoxicity (comment): RC/PAROXETINE
[7]
  Hepatotoxicity (acute): 3
[8]
  Hepatotoxicity (time to onset): 40 days - 69 days
[9]
  Hepatotoxicity (cirrhosis): 0
[10]
  Hepatotoxicity (moderate): 4.5%
[11]
  Hepatotoxicity (chronic liver disease): 0
[12]
  Hepatotoxicity (malignant tumour): 0
[13]
  Hepatotoxicity (steatosis): 1
[14]
  Hepatotoxicity (granulomatous hepatitis): 0
[15]
  Hepatotoxicity (association with vascular disease): 0
[16]
  Hepatotoxicity (acute): 0%

## C[C@]12CC[C@@H]3c4ccc(OS(=O)(=O)O)cc4CC[C@H]3[C@@H]1CCC2=O [ESTRONE SULFURIC ACID]
[1]
  Hepatotoxicity (moderate): 5
[2]
  Hepatotoxicity (choleostasis): 1
[3]
  Hepatotoxicity (cytolytic): 0
[4]
  Hepatotoxicity (severe hepatitis): 0
[5]
  Hepatotoxicity (benign tumour): 1
[6]
  Hepatotoxicity (comment): HNF
[7]
  Hepatotoxicity (acute): 1
[8]
  Hepatotoxicity (time to onset): 3 months - 1 year
[9]
  Hepatotoxicity (cirrhosis): 0
[10]
  Hepatotoxicity (moderate): 22.9%
[11]
  Hepatotoxicity (chronic liver disease): 0
[12]
  Hepatotoxicity (malignant tumour): 0
[13]
  Hepatotoxicity (steatosis): 0
[14]
  Hepatotoxicity (granulomatous hepatitis): 0
[15]
  Hepatotoxicity (association with vascular disease): 0
[16]
  Hepatotoxicity (acute): 0%

## CCc1cccc2c3c([nH]c12)C(CC)(CC(=O)O)OCC3 (stereo not given) [ETODOLAC]
[1]
  Hepatotoxicity (moderate): 4
[2]
  Hepatotoxicity (choleostasis): 2
[3]
  Hepatotoxicity (cytolytic): 2
[4]
  Hepatotoxicity (severe hepatitis): 1
[5]
  Hepatotoxicity (benign tumour): 0
[6]
  Hepatotoxicity (comment): AC_ANTI-N/-ML
[7]
  Hepatotoxicity (acute): 3
[8]
  Hepatotoxicity (time to onset): 4 days - 16 weeks
[9]
  Hepatotoxicity (cirrhosis): 0
[10]
  Hepatotoxicity (moderate): 4%
[11]
  Hepatotoxicity (chronic liver disease): 0
[12]
  Hepatotoxicity (malignant tumour): 0
[13]
  Hepatotoxicity (steatosis): 1
[14]
  Hepatotoxicity (granulomatous hepatitis): 0
[15]
  Hepatotoxicity (association with vascular disease): 0
[16]
  Hepatotoxicity (acute): 0%

## CC(=O)OCC(CCn1cnc2cnc(N)nc21)COC(C)=O [FAMCICLOVIR]
[1]
  Hepatotoxicity (moderate): 0
[2]
  Hepatotoxicity (choleostasis): 0
[3]
  Hepatotoxicity (cytolytic): 0
[4]
  Hepatotoxicity (severe hepatitis): 1
[5]
  Hepatotoxicity (benign tumour): 0
[6]
  Hepatotoxicity (comment): REACTIVATION_HVB
[7]
  Hepatotoxicity (acute): 1
[8]
  Hepatotoxicity (time to onset): 12 weeks
[9]
  Hepatotoxicity (cirrhosis): 0
[10]
  Hepatotoxicity (moderate): 0%
[11]
  Hepatotoxicity (chronic liver disease): 0
[12]
  Hepatotoxicity (malignant tumour): 0
[13]
  Hepatotoxicity (steatosis): 0
[14]
  Hepatotoxicity (granulomatous hepatitis): 0
[15]
  Hepatotoxicity (association with vascular disease): 0
[16]
  Hepatotoxicity (acute): 0%

## CC(C(=O)O)c1cccc(Oc2ccccc2)c1 (stereo not given) [FENOPROFEN]
[1]
  Hepatotoxicity (moderate): 1
[2]
  Hepatotoxicity (choleostasis): 1
[3]
  Hepatotoxicity (cytolytic): 2
[4]
  Hepatotoxicity (severe hepatitis): 0
[5]
  Hepatotoxicity (benign tumour): 0
[6]
  Hepatotoxicity (comment): RC/NAPROXENE
[7]
  Hepatotoxicity (acute): 3
[8]
  Hepatotoxicity (time to onset): 1 week - 7 weeks
[9]
  Hepatotoxicity (cirrhosis): 0
[10]
  Hepatotoxicity (moderate): 7%
[11]
  Hepatotoxicity (chronic liver disease): 0
[12]
  Hepatotoxicity (malignant tumour): 0
[13]
  Hepatotoxicity (steatosis): 0
[14]
  Hepatotoxicity (granulomatous hepatitis): 0
[15]
  Hepatotoxicity (association with vascular disease): 0
[16]
  Hepatotoxicity (acute): 0%

## Nc1nc(F)nc2c1ncn2[C@@H]1O[C@H](CO)[C@@H](O)[C@@H]1O [FLUDARABINE]
[1]
  Hepatotoxicity (moderate): 5
[2]
  Hepatotoxicity (choleostasis): 0
[3]
  Hepatotoxicity (cytolytic): 1
[4]
  Hepatotoxicity (severe hepatitis): 1
[5]
  Hepatotoxicity (benign tumour): 0
[6]
  Hepatotoxicity (comment): REACTIVATION_HVB
[7]
  Hepatotoxicity (acute): 2
[8]
  Hepatotoxicity (time to onset): 8 months
[9]
  Hepatotoxicity (cirrhosis): 0
[10]
  Hepatotoxicity (moderate): 42.9%
[11]
  Hepatotoxicity (chronic liver disease): 0
[12]
  Hepatotoxicity (malignant tumour): 0
[13]
  Hepatotoxicity (steatosis): 0
[14]
  Hepatotoxicity (granulomatous hepatitis): 0
[15]
  Hepatotoxicity (association with vascular disease): 0
[16]
  Hepatotoxicity (acute): 0%

## C[C@]1(O)CC[C@H]2[C@@H]3CCC4=CC(=O)CC[C@]4(C)[C@@]3(F)[C@@H](O)C[C@@]21C [FLUOXYMESTERONE]
[1]
  Hepatotoxicity (moderate): 2
[2]
  Hepatotoxicity (choleostasis): 2
[3]
  Hepatotoxicity (cytolytic): 0
[4]
  Hepatotoxicity (severe hepatitis): 0
[5]
  Hepatotoxicity (benign tumour): 1
[6]
  Hepatotoxicity (comment): ANGIOSARCOME PELIOSE
[7]
  Hepatotoxicity (acute): 2
[8]
  Hepatotoxicity (time to onset): 6 months - 13 years
[9]
  Hepatotoxicity (cirrhosis): 0
[10]
  Hepatotoxicity (moderate): 7.1%
[11]
  Hepatotoxicity (chronic liver disease): 0
[12]
  Hepatotoxicity (malignant tumour): 3
[13]
  Hepatotoxicity (steatosis): 0
[14]
  Hepatotoxicity (granulomatous hepatitis): 0
[15]
  Hepatotoxicity (association with vascular disease): 6
[16]
  Hepatotoxicity (acute): 0%

## CCC(=O)O[C@@H](O[P@](=O)(CCCCc1ccccc1)CC(=O)N1C[C@H](C2CCCCC2)C[C@H]1C(=O)O)C(C)C [FOSINOPRIL]
[1]
  Hepatotoxicity (moderate): 3
[2]
  Hepatotoxicity (choleostasis): 2
[3]
  Hepatotoxicity (cytolytic): 0
[4]
  Hepatotoxicity (severe hepatitis): 0
[5]
  Hepatotoxicity (benign tumour): 0
[6]
  Hepatotoxicity (comment): PERICHOLANGITE CHOLESTASE_PROLONGEE
[7]
  Hepatotoxicity (acute): 2
[8]
  Hepatotoxicity (time to onset): 3 weeks - 3 months
[9]
  Hepatotoxicity (cirrhosis): 0
[10]
  Hepatotoxicity (moderate): 1.2%
[11]
  Hepatotoxicity (chronic liver disease): 0
[12]
  Hepatotoxicity (malignant tumour): 0
[13]
  Hepatotoxicity (steatosis): 0
[14]
  Hepatotoxicity (granulomatous hepatitis): 0
[15]
  Hepatotoxicity (association with vascular disease): 0
[16]
  Hepatotoxicity (acute): 0%
